Here are results for 19 compounds from PubChem BioAssay AID228 (DTP/NCI, 2004).

Where “and” joins values, the source holds several entries; their conditions need not be identical. Equal entries are not always repeated. Results filed as inconclusive are left out.

This assay relates to BDF1 mice, Friend leukemia sc, tumor weight T/C. Kind of assay: NCI In Vivo Anticancer Drug Screen. Data for tumor model Friend Virus Leukemia (Solid) (subcutaneous) in B6D2F1 (BDF1) mice. Conditions: endpoint: mean tumor weight, higher = larger tumour. As for the experimental part: The antitumor activity of compounds was measured in mice bearing transplantable tumors. Survival or tumor size were measured and the results are expressed as the measurement made in the treated group (T) divided by the measurement made in the vehicle treated control group (C). The tumor model used in this assay is Friend Virus Leukemia (Solid) (subcutaneous) in B6D2F1 (BDF1) mice

The mark [1] stands for this setting: dose: 1.0 mg/kg/injection, schedule: Q01DX011 (ip), vehicle: carboxymethylcellulose (CMC).
The mark [2] stands for this setting: dose: 2.0 mg/kg/injection, schedule: Q01DX011 (ip), vehicle: carboxymethylcellulose (CMC).
The mark [3] stands for this setting: dose: 4.0 mg/kg/injection, schedule: Q01DX011 (ip), vehicle: carboxymethylcellulose (CMC).
Setting [4] is: dose: 15.0 mg/kg/injection, schedule: Q01DX011 (ip), vehicle: carboxymethylcellulose (CMC).
Where [5] appears, read: dose: 62.0 mg/kg/injection, schedule: Q01DX011 (ip), vehicle: carboxymethylcellulose (CMC).
Where [6] appears, read: dose: 125.0 mg/kg/injection, schedule: Q01DX011 (ip), vehicle: carboxymethylcellulose (CMC).
Setting [7] is: dose: 50.0 mg/kg/injection, schedule: Q01DX011 (ip), vehicle: carboxymethylcellulose (CMC).
Where [8] appears, read: dose: 100.0 mg/kg/injection, schedule: Q01DX011 (ip), vehicle: carboxymethylcellulose (CMC).
[9] abbreviates: dose: 200.0 mg/kg/injection, schedule: Q01DX011 (ip), vehicle: carboxymethylcellulose (CMC).
[10] abbreviates: dose: 100.0 mg/kg/injection, schedule: Q01DX011 (ip), vehicle: saline.

As for `O=P(N1CC1)(N1CC1)N1CC1`, the T/C is, setting by setting: (dose: 0.5 mg/kg/injection, schedule: Q01DX011 (ip), vehicle: carboxymethylcellulose (CMC)) 86 % of control; under setting [1], 83 % of control; under setting [2], 84 % of control and 88 % of control; under setting [3], 25 % of control and 37 % of control.
Turning to `O=C(N[C@H](CO)[C@H](O)c1ccc([N+](=O)[O-])cc1)C(Cl)Cl`, the T/C is, setting by setting: (dose: 47.0 mg/kg/injection, schedule: Q01DX011 (ip), vehicle: carboxymethylcellulose (CMC)) 105 % of control; (dose: 95.0 mg/kg/injection, schedule: Q01DX011 (ip), vehicle: carboxymethylcellulose (CMC)) 98 % of control; (dose: 191.0 mg/kg/injection, schedule: Q01DX011 (ip), vehicle: carboxymethylcellulose (CMC)) 77 % of control; (dose: 383.0 mg/kg/injection, schedule: Q01DX011 (ip), vehicle: carboxymethylcellulose (CMC)) 108 % of control.
For `CN(C)c1ccc(C(N)=O)cn1`, the T/C was 78 % of control under setting [1]; 88 % of control and 100 % of control under setting [2].
On to `CC(=O)[C@H]1CC[C@H]2[C@@H]3C[C@H](C)C4=CC(=O)CC[C@]4(C)[C@@]3(F)[C@@H](O)C[C@]12C`, for which the T/C reads like this: (dose: 6.0 mg/kg/injection, schedule: Q01DX011 (sc), vehicle: steriod suspending solution) 163 % of control; (dose: 8.0 mg/kg/injection, schedule: Q01DX011 (sc), vehicle: steriod suspending solution) 162 % of control; (dose: 12.0 mg/kg/injection, schedule: Q01DX011 (sc), vehicle: steriod suspending solution) 151 % of control; (dose: 16.0 mg/kg/injection, schedule: Q01DX011 (sc), vehicle: steriod suspending solution) 80 % of control; (dose: 50.0 mg/kg/injection, schedule: Q01DX011 (sc), vehicle: steriod suspending solution) 66 % of control and 43 % of control; (dose: 100.0 mg/kg/injection, schedule: Q01DX011 (sc), vehicle: steriod suspending solution) 22 % of control and 47 % of control. Moreover, for the setting “dose: 200.0 mg/kg/injection, schedule: Q01DX011 (sc), vehicle: steriod suspending solution”, the T/C was 46 % of control.
Consider `CN(C)C1C(=O)C(C(N)=O)=C(O)C2(O)C(=O)C3=C(O)c4c(O)cccc4C(C)(O)C3C(O)C12` (stereo unspecified), for which the T/C runs as follows: (dose: 19.5 mg/kg/injection, schedule: Q01DX011 (ip), vehicle: carboxymethylcellulose (CMC)) 94 % of control; (dose: 78.0 mg/kg/injection, schedule: Q01DX011 (ip), vehicle: carboxymethylcellulose (CMC)) 115 % of control; (dose: 156.0 mg/kg/injection, schedule: Q01DX011 (ip), vehicle: carboxymethylcellulose (CMC)) 95 % of control.
As to `O=C(COc1cc(Cl)c(Cl)cc1Cl)OCCOc1cc(Cl)c(Cl)cc1Cl`, the T/C was 91 % of control (dose: 11.25 mg/kg/injection, schedule: Q01DX011 (ip), vehicle: carboxymethylcellulose (CMC)); 112 % of control (dose: 22.5 mg/kg/injection, schedule: Q01DX011 (ip), vehicle: carboxymethylcellulose (CMC)); 117 % of control (dose: 45.0 mg/kg/injection, schedule: Q01DX011 (ip), vehicle: carboxymethylcellulose (CMC)); 65 % of control (dose: 90.0 mg/kg/injection, schedule: Q01DX011 (ip), vehicle: carboxymethylcellulose (CMC)).
As to `O=[N+]([O-])c1ccccc1CSc1ncnc2nc[nH]c12`, the T/C is 112 % of control under setting [4]; 111 % of control (dose: 31.0 mg/kg/injection, schedule: Q01DX011 (ip), vehicle: carboxymethylcellulose (CMC)); 55 % of control and 48 % of control under setting [5]; 26 % of control and 48 % of control under setting [6]; 7 % of control (dose: 250.0 mg/kg/injection, schedule: Q01DX011 (ip), vehicle: carboxymethylcellulose (CMC)); 2 % of control (dose: 500.0 mg/kg/injection, schedule: Q01DX011 (ip), vehicle: carboxymethylcellulose (CMC)).
Regarding `Clc1ncnc2nc[nH]c12`, the T/C runs as follows: under setting [7], 71 % of control; under setting [8], 47 % of control; under setting [9], 18 % of control.
As to `COc1ccc2c(c1OC)C(=O)O[C@@H]2[C@H]1c2c(cc3c(c2OC)OCO3)CCN1C`, the T/C is, setting by setting: (dose: 50.0 mg/kg/injection, schedule: Q01DX011 (ip), vehicle: saline) 110 % of control; under setting [10], 99 % of control; (dose: 200.0 mg/kg/injection, schedule: Q01DX011 (ip), vehicle: saline) 85 % of control.
On to `NC(=O)/C=C/C(=O)O` (tested in a mixture with another compound), for which the T/C was 78 % of control (dose: 7.5 mg/kg/injection, schedule: Q#A X022 (ip), vehicle: carboxymethylcellulose (CMC)) and 66 % of control (dose: 15.5 mg/kg/injection, schedule: Q#A X022 (ip), vehicle: carboxymethylcellulose (CMC)).
`CC1CC(C)OS(=O)O1` (stereo unspecified): the T/C was 70 % of control (dose: 44.0 mg/kg/injection, schedule: Q01DX011 (ip), vehicle: saline); 71 % of control under setting [10]; 85 % of control (dose: 150.0 mg/kg/injection, schedule: Q01DX011 (ip), vehicle: saline).
Take `CCCCSc1ncnc2nc[nH]c12`: the T/C by setting is: (dose: 16.0 mg/kg/injection, schedule: Q01DX011 (ip), vehicle: saline) 101 % of control; (dose: 31.0 mg/kg/injection, schedule: Q01DX011 (ip), vehicle: saline) 121 % of control; (dose: 62.0 mg/kg/injection, schedule: Q01DX011 (ip), vehicle: saline) 99 % of control; (dose: 125.0 mg/kg/injection, schedule: Q01DX011 (ip), vehicle: saline) 62 % of control.
For the compound `N=C(N)c1ccc(Nc2ccc(C(=N)N)cc2)cc1`, the T/C is, setting by setting: (dose: 5.0 mg/kg/injection, schedule: Q01DX011 (ip), vehicle: water) 186 % of control; (dose: 7.5 mg/kg/injection, schedule: Q01DX011 (ip), vehicle: water) 164 % of control; (dose: 10.0 mg/kg/injection, schedule: Q01DX011 (ip), vehicle: water) 154 % of control; (dose: 15.0 mg/kg/injection, schedule: Q01DX011 (ip), vehicle: water) 180 % of control.
Take `c1ccc(CSc2ncnc3nc[nH]c23)nc1`: the T/C under setting [2] is 88 % of control; the T/C under setting [3] was 46 % of control; the T/C (dose: 9.0 mg/kg/injection, schedule: Q01DX011 (ip), vehicle: carboxymethylcellulose (CMC)) was 33 % of control and 39 % of control; the T/C (dose: 18.0 mg/kg/injection, schedule: Q01DX011 (ip), vehicle: carboxymethylcellulose (CMC)) is 3 % of control and 7 % of control; the T/C (dose: 37.0 mg/kg/injection, schedule: Q01DX011 (ip), vehicle: carboxymethylcellulose (CMC)) was 6 % of control and 18 % of control.
Consider `C=C(C)C(=O)OCC1CO1` (stereo unspecified), for which the T/C (dose: 50.0 mg/kg/injection, schedule: Q01DX011 (ip), vehicle: water) was 99 % of control and the T/C (dose: 100.0 mg/kg/injection, schedule: Q01DX011 (ip), vehicle: water) is 110 % of control.
Consider `CCCCCCCCCC(C)(O)C#CC(C)(O)CCCCCCCCC` (stereo unspecified), for which the T/C is 81 % of control (dose: 12.0 mg/kg/injection, schedule: Q01DX011 (ip), vehicle: carboxymethylcellulose (CMC)); 82 % of control (dose: 25.0 mg/kg/injection, schedule: Q01DX011 (ip), vehicle: carboxymethylcellulose (CMC)); 58 % of control and 59 % of control under setting [7]; 55 % of control under setting [8]; 34 % of control under setting [9].
For `CS(=O)(=O)OCCCOS(C)(=O)=O`, the T/C reads like this: under setting [4], 100 % of control; (dose: 30.0 mg/kg/injection, schedule: Q01DX011 (ip), vehicle: carboxymethylcellulose (CMC)) 98 % of control; (dose: 60.0 mg/kg/injection, schedule: Q01DX011 (ip), vehicle: carboxymethylcellulose (CMC)) 31 % of control and 46 % of control; (dose: 120.0 mg/kg/injection, schedule: Q01DX011 (ip), vehicle: carboxymethylcellulose (CMC)) 22 % of control.
As to `Nc1ccc(C(=O)O)c(O)c1`, the T/C (dose: 37.8 mg/kg/injection, schedule: Q01DX011 (ip), vehicle: carboxymethylcellulose (CMC)) is 82 % of control; the T/C (dose: 75.7 mg/kg/injection, schedule: Q01DX011 (ip), vehicle: carboxymethylcellulose (CMC)) is 101 % of control; the T/C (dose: 151.5 mg/kg/injection, schedule: Q01DX011 (ip), vehicle: carboxymethylcellulose (CMC)) is 113 % of control; the T/C (dose: 303.0 mg/kg/injection, schedule: Q01DX011 (ip), vehicle: carboxymethylcellulose (CMC)) is 95 % of control.
As for `O=C(O)C(=O)c1ccc(-c2ccccc2)cc1`, the T/C by setting is: under setting [5], 67 % of control; under setting [6], 45 % of control.
